Columns and labels:
[1] = tested on: Metrazol seizure threshold; assay: Timed intravenous infusion of Metrazol (iv Met) in mouse; type: in vivo; details: FIG. 1, p<0.001
Protocol: The iv-Met test provides a measure of a test substance's ability to raise or lower seizure threshold. Two doses of the test compound are usually employed in this test, the MES ED50 and the TD50 determined following ip quantification testing in mice. Randomly selected mice are injected intraperitoneally 2 minutes apart with either the vehicle or the two test drug doses, maintaining the same order of dosing until 30 mice have been injected. At the previously determined TPE, 0.5% heparinized Metrazol solution is infused at a constant rate of 0.34 ml/min into a lateral tail vein of an unrestrained mouse. Infusion is by means of a Sage syringe pump (model 341 A) and a 10 ml B-D plastic syringe connected to a length of No 20 P.E. tubing. A 27 gauge stainless steel needle with the hub removed is connected to the tubing and inserted into a vein, bevel side up and secured to the tail by a narrow piece of adhesive tape. For the placement of the needle, the mouse is restrained in a cone shaped device with only the tail exposed. […] The time in seconds from the start of the infusion to the appearance of the “first twitch” and the onset of sustained clonus is recorded. The times to each endpoint are converted to mg/kg of Metrazol for each mouse as follows: The mean and standard error for each of the 3 groups and the significance of the difference between the test groups and the control are calculated.

[2] = tested on: spontaneous recurrent hippocampal paroxysmal discharges (HPD); assay: Mesial temporal lobe epilepsy (mTLE) mouse model; type: in vivo; details: 125 mg/kg; mice lesioned with intrahippocampal kainic acid
From the text: The MTLE mouse model recapitulates many of the characteristics observed in human patients with temporal lobe epilepsy (TLE). The MTLE mouse is characterized by an initial neurotoxic event, a unilateral intrahippocampal injection of kainic acid (KA) into the dorsal hippocampus, which induces non-convulsive SE lasting several hours. This initial event is followed by a latent phase. Two to three weeks after KA injection, spontaneous recurrent hippocampal paroxysmal discharges (HPD) are only recorded in the epileptic hippocampus and remain stable and stereotyped for the whole life of the animal. These HPDs occur spontaneously about 30-60 times per hour when the animals are in a state of quiet wakefulness, generally last 15-20 sec and are associated with behavioral arrest and/or mild motor automatisms. […] Data are analyzed for the period of 10 minutes before and 10 minutes after peak time of effect of the investigational compound, as determined from the 6 Hz 44 mA seizure test. […] Data are presented as the raw number of HPDs during the analyzed 20 min period (10 minutes before and 10 minutes after peak time of effect of compound) for each MTLE mouse, group mean number of HPDs, and effect on suppression as represented by percent of baseline HPD values.

mechanical allodynia [3] = assay: Sciatic ligation model in rats (neuropathic pain); type: in vivo, rat; details: 23 mg/kg i.p.
From the text: Animals will be anesthetized with sodium pentobarbital and the depth of anesthesia monitored by their response to a tail pinch and observation of the depth of respiration. Sterile technique will be used throughout the surgery. The upper thigh will be shaved and wiped off with ethanol and betadine. A small incision will then be made in the skin. The underlying muscle of the upper thigh will be separated and the sciatic nerve exposed. The nerve is separated from the surrounding connective tissue and slightly elevated by a pair of fine, curved forceps. Approximately ⅓ to ½ of the nerve is tied off by passing a needle (7.0) and nylon suture through the nerve. The muscle and skin incision are closed off separately with 5.0 suture and the animals kept warm until they have recovered from the anesthesia. […] The rats will be closely monitored daily for the development of infection or untoward effects of the surgery in which case the animals will be immediately euthanized. […] After 30-60 minutes in which to acclimate, a baseline mechanical sensitivity is determined. […] This is repeated until a 50% threshold for withdrawal can be determined. […] Testing will be conducted at the time-to-peak effect of the AED as determined in the acute seizure model (Z. Seltzer et al. Pain 43 1990, 205-218).

mechanical allodynia [4] = assay: Spinal nerve injury (SNI) model, Von Frey test; type: in vivo, rat; details: 60 mg/kg i.p.
From the text: The SNI model of neuropathic pain was developed in rats using the procedure described by Decostered and Woolf, Pain 2000, 87: 149-158. Under isoflurane anesthesia, the skin on the lateral surface of the thigh was incised and a section was made directly through the biceps femoris muscle exposing the sciatic nerve and its three terminal branches: the sural, common peroneal and tibial nerves. The common peroneal and the tibial nerves were tight-ligated with 6-0 suture and sectioned distal to the ligation, removing 2-4 mm of the distal nerve stump. Extreme care was taken to avoid any contact with or stretching of the intact sural nerve. Following surgery, hemostasis was confirmed and the muscles were sutured in layers using 4-0 suture and the skin was closed with 4-0 suture and metal clips. Male, Sprague-Dawley rats were used. Testing of compounds was done 21 days post-operatively. After initial basal readings were taken, the test compound or vehicle was administered. The readings were taken again 30, 60 and 180 min after the compound/vehicle administration. Both the control (uninjured) and the SNI paw were tested. The presence of mechanical allodynia was assessed using the Dynamic Plantar Aesthesiometer (Ugo Basile, Italy) which is a modified version of the Von Frey Hair test. […] A single reading was taken per time point. […]

| Compound | seizure threshold (time to twitch, time to clonus, total dose of pentylenetetrazol to first twitch or clonus) [1] | effect against spontaneous recurrent hippocampal paroxysmal discharges (HPD) [2] | mechanical allodynia compared to vehicle controls (mechanical allodynia [3]) | mechanical allodynia in the denervated paw, Von Frey test (mechanical allodynia [4]) |
| --- | --- | --- | --- | --- |
| C[C@@H](Oc1cc(Cl)cc(C(F)(F)F)c1)C(N)=O [I(D), (2R)-2-[3-chloro-5-(trifluoromethyl)-phenoxy]propanamide] | elevate seizure threshold | effective |  |  |
| NC(=O)COc1cc(C(F)(F)F)cc(C(F)(F)F)c1 [I(F), 2-[3,5 bis(trifluoromethyl)-phenoxy]acetamide;] |  |  | significant decrease | effective |
